Source: patent US20240238212A1, “LIPID COMPOUNDS AND LIPID NANOPARTICLE COMPOSITIONS” (SUZHOU ABOGEN BIOSCIENCES CO., LTD., priority 2022, published 2024)
Where “and” joins values, the source holds several entries; their conditions need not be identical. Identical values can stand only once. Entries after “also recorded” stand apart in the source; their conditions may differ. Like-named read-outs stand apart in the source and are kept apart here.

What was measured:
[1] = tested on: human erythropoietin (hEPO) mRNA expression; test: Animal Study 1: hEPO mRNA LNPs i.v. in mice, serum EPO by ELISA; format: in vivo; conditions: female ICR mice, 0.5 mg/kg tail vein injection, blood e.g. 6 hours post administration; relative to MC3 LNP
Procedure, shortened: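 Female ICR mice aged 6-8 weeks received LNP-encapsulated hEPO mRNA at 0.5 mg/kg by tail-vein injection, with MC3 LNPs as positive control. Blood was sampled at set time points (e.g., 6 hours) and serum EPO quantified by ELISA. Values are expressed relative to MC3.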

[2] = Lipid nanoparticle size and polydispersity by dynamic light scattering; format: physicochemical; conditions: LNP comprising the compound
Procedure, shortened: (§1)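 LNPs of cationic lipid:DSPC:cholesterol:PEG-lipid (50:10:38.5:1.5 molar) with mRNA in 10–50 mM citrate pH 4, microfluidic mixing at 1:3 ethanol:aqueous, lipid:mRNA weight ratio ~10:1–30:1, dialysed into DPBS and 0.2 μm filtered. Size by DLS, 173° backscatter; encapsulation efficiency by Ribogreen assay.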

[3] = Lipid clearance study: lipid remaining in liver tissue by LC-MS/MS; conditions: mouse liver; for % Dose Remaining in Liver Tissue, 6 h: 6 h after 0.5 mg/kg i.v. bolus dose mRNA; for % Dose Remaining in Liver Tissue, 24 h: 24 h after 0.5 mg/kg i.v. bolus dose mRNA; for % Dose Remaining in Liver Tissue, 48 h: 48 h after 0.5 mg/kg i.v. bolus dose mRNA
Procedure: (§3) LNPs were injected into mice via the tail vein (ICR female, IV, 0.5 mg mRNA/kg), then mice were anesthetized under carbon dioxide at different time (e.g., 6 h, 24 h, and 48 h) after administration and sacrificed via cardiac puncture. Liver tissue were collected immediately, and then washed by ice-cold saline. Liver samples were weighed and homogenized in ice water bath by adding pre-chilled 20% methanol-water (v/v) at 2˜8° C. with the ratio of 1:5 (w/v). The homogenized tissue samples were stored in −90˜−60° C. freezer prior to analysis.
(§4) All liver tissue homogenate samples were allowed to thaw at room temperature. An aliquot of 50 μL of sample was added with 50 μL MgCl2 (2M), then added with ACN which contains of Verapamil, 5 ng mL-1 and Glibenclamide, 50 ng mL-1 and Diclofenac, 200 ng mL^−1 and Tolbutamide, 200 ng mL^−1 for protein precipitation, then centrifuged at 13000 rpm for 8 min. Then 100 μL of supernatant was added with 100 μL water, then vortexed well. An aliquot of 5 μL of the mixture was injected into the LC-MS/MS system.

[4] = Apparent pKa of LNP formulations (TNS fluorescence assay); format: physicochemical; conditions: LNP formulation
Procedure, shortened: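 LNPs (cationic lipid/DSPC/cholesterol/DMG-PEG 50/10/38.5/1.5 mol %) diluted to 0.1 mg/mL total lipid in citrate/phosphate/borate/NaCl buffers spanning pH 3–9 with TNS. Fluorescence (ex 325, em 435 nm) read at room temperature; pKa taken as the pH at half-maximal intensity from sigmoidal fit.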

[5] = Encapsulation efficiency of lipid nanoparticles (Quant-it Ribogreen RNA assay); format: physicochemical; conditions: LNP comprising the compound
Procedure, shortened: as §1

[6] = tested on: luciferase mRNA expression; test: Animal Study 2: luciferase mRNA LNPs i.v. in mice, optical imaging; format: in vivo; conditions: female Balb/c mice, 0.25 mg/kg tail vein injection, e.g. 6 hours; relative to MC3 LNP
Procedure: (§2) Lipid nanoparticles comprising compounds in the following table encapsulating mRNA encoding luciferase were systemically administered to 6-8 week old female Balb/c mice (Charles River Lab, ZheJiang) at 0.25 mg/kg dose by tail vein injection and mice blood were sampled at specific time points (e.g., 6 hours) post administration. Optical imaging was performed using the IVIS Spectrum CT device (PerkinElmer Inc., Paris, France). The luminescence level was evaluated by an ROI applied to the injection site zone (Living Image software, PerkinElmer Inc., Paris, France). In addition to the aforementioned tested groups, lipid nanoparticles comprising dilinoleylmethyl-4-dimethylaminobutyrate (other names: DLin-MC3-DMA or MC3) encapsulating luciferase mRNA were similarly administered at the same dose to age and gender comparative groups of mice as a positive control.
Characteristics of tested lipid nanoparticles, including luciferase expression levels over MC3 measured from the tested group are listed in the table below.

[7] = tested on: luciferase mRNA expression; test: Animal Study 2: bioluminescence of dissected organs; format: in vivo, Balb/c mice
Procedure: as §2
Radiance of heart, liver, spleen, lung, kidney, brain and bone marrow were taken at 6 h after administration. The Dissected organs were placed on a black sheet and imaged with IVIS Spectrum CT (PerkinElmer, Hopkinton, MA). To quantify bioluminescence emission signal, identical regions of interest (ROI) were positioned to encircle each organ region, the imaging signal was quantitated as Total Flux [p/s].

[8] = mouse, in vivo
Procedure: as §3, §4

[9] = hEPO mRNA, cationic lipid/DSPC/cholesterol/PEG-lipid 50:10:38.5:1.5
[10] = dissected organ, 6 h after administration, 0.25 mg/kg i.v., ROI 1-3, 0.25 mg/kg

| SMILES | Polydispersity ([2]; hEPO mRNA) | Size (nm) [2, 9] | % Dose Remaining in Liver Tissue, 6 h [3] | % Dose Remaining in Liver Tissue, 24 h [3] | % Dose Remaining in Liver Tissue, 48 h [3] | Apparent pKa ([4]; TNS assay (Table 2)) | Encapsulation efficiency ([5]; hEPO mRNA) | Polydispersity ([2]; luciferase mRNA) | Size (nm) ([2]; luciferase mRNA) | Apparent pKa ([4]; TNS assay (Table 3)) | Encapsulation efficiency ([5]; luciferase mRNA) | EPO expression over MC3 [1] | luciferase expression over MC3 [6] | other results |
| --- | --- | --- | --- | --- | --- | --- | --- | --- | --- | --- | --- | --- | --- | --- |
| CCCCCCCCCCCOC(=O)CCCCCN(CCO)CCCOC(COC(=O)CCCCCCC)COC(=O)CCCCCCC [Compound 8] | 0.051 | 95.24 nm | 1.274% | 0.068% | 0% | 6.992 | 84.70% |  |  |  |  | C (≥0.1 and <1) |  |  |
| CCCCCCCC(=O)OCC(COC(=O)CCCCCCC)OCCCN(CCCOC(COC(=O)CCCCCCC)COC(=O)CCCCCCC)CCN(CCO)C1CCC1 [Compound 9] | 0.046 | 111.6 nm | 1.071% | 0.089% | 0% | 6.558 | 87.29% |  |  |  |  | A (≥2) |  |  |
| CCCCCCCCC(CCCCCC)COC(=O)CCCCCN(CCO)CCCCC(COC(=O)CCCCCCC)COC(=O)CCCCCCC (centres unmarked) [Compound 10] | 0.084 | 61.45 nm | 0.981% | 0.19% | 0.038% | 6.624 | 91.36% |  |  |  |  | B (≥1 and <2) |  |  |
| CCCCCCCCC(CCCCCC)CNC(=O)CCCCCN(CCO)CCCCC(COC(=O)CCCCCCC)COC(=O)CCCCCCC (centres unmarked) [Compound 11] | 0.082 | 59.17 nm | 3.1% | 0.537% | 0.139% |  | 85.63% |  |  |  |  | D (<0.1) |  |  |
| CCCCCCCCCCCCCCCCCC(=O)OCCCCCCN(CCCCC(COC(=O)CCCCCCC)COC(=O)CCCCCCC)C1CC(O)C1 (centres unmarked) [Compound 57] |  |  |  |  |  |  |  | 0.026 | 86.07 nm | 7.046 | 90.36% |  | A (≥2) |  |
| CCCCC/C=C\C/C=C\CCCCCCCCC(CCCCCCCC/C=C\C/C=C\CCCCC)OC(=O)CCCN(C)C [MC3, dilinoleylmethyl-4-dimethylaminobutyrate] |  |  |  |  |  |  |  |  |  |  |  |  |  | % Dose Remaining in Liver Tissue, 6 h ([8]; 6 h): 69.39%; % Dose Remaining in Liver Tissue, 24 h ([8]; 24 h): 61.63%; % Dose Remaining in Liver Tissue, 48 h ([8]; 48 h): 52.47% |

The next lines start with results.

| Polydispersity ([2]; hEPO mRNA) | Size (nm) [2, 9] | % Dose Remaining in Liver Tissue, 6 h [3] | % Dose Remaining in Liver Tissue, 24 h [3] | % Dose Remaining in Liver Tissue, 48 h [3] | Apparent pKa ([4]; TNS assay (Table 2)) | Encapsulation efficiency ([5]; hEPO mRNA) | Polydispersity ([2]; luciferase mRNA) | Size (nm) ([2]; luciferase mRNA) | Apparent pKa ([4]; TNS assay (Table 3)) | Encapsulation efficiency ([5]; luciferase mRNA) | SMILES | EPO expression over MC3 [1] | luciferase expression over MC3 [6] | other results |
| --- | --- | --- | --- | --- | --- | --- | --- | --- | --- | --- | --- | --- | --- | --- |
|  |  |  |  |  |  |  | 0.053 | 81.27 nm | 6.948 | 89.76% | CCCCC/C=C\C/C=C\CCCCCCCC(=O)OCCCCCCN(CCCCC(COC(=O)CCCCCCC)COC(=O)CCCCCCC)C1CC(O)C1 (centres unmarked) [Compound 58] |  | A (≥2) |  |
|  |  |  |  |  |  |  | 0.011 | 73.37 nm | 6.809 | 93.20% | CCCCCCCC(=O)OCC(CCCCN(CCCCC(COC(=O)CCCCCCC)COC(=O)CCCCCCC)CCCNc1c(N(CC)CCO)c(=O)c1=O)COC(=O)CCCCCCC [Compound 60] |  | C (≥0.1 and <1) |  |
|  |  |  |  |  |  |  | 0.069 | 113.16 nm | 6.762 | 88.12% | CCCCCCCCSSCCOC(=O)CCCCCN(CCCCCO)CCCCC(COC(=O)CCCCCCC)COC(=O)CCCCCCC [Compound 76] |  | B (≥1 and <2) | Total Flux [p/s], Brain [7, 10]: 4.60E+06 p/s and 4.15E+06 p/s and 5.13E+06 p/s; Total Flux [p/s], Liver [7, 10]: 1.40E+09 p/s and 9.82E+08 p/s and 1.38E+09 p/s; Total Flux [p/s], Lung [7, 10]: 5.18E+06 p/s and 5.48E+06 p/s and 4.33E+06 p/s; Total Flux [p/s], bone marrow [7, 10]: 2.09E+06 p/s and 3.07E+06 p/s and 2.94E+06 p/s; luciferase expression in organs (in words) ([7]; nanoparticle comprising the compound, organs 6 h after administration): significant transduction and luciferase expression were observed in liver and spleen; also recorded: high absolute expression in the heart, spleen, lung, kidney, brain |
